Assay: xn = mol fraction of the nth substance listed

CCCCCC(=O)O + ClC(Cl)(Cl)Cl
298.15 K, 101 kPa
Conditions | viscosity [mPa·s]
x1 = 0.07 | 0.966
x1 = 0.13 | 1.033
x1 = 0.19 | 1.108
x1 = 0.25 | 1.188
x1 = 0.47 | 1.548
x1 = 0.57 | 1.743
x1 = 0.67 | 1.927
x1 = 0.84 | 2.343

OCCOc1ccccc1 + CCCCCCO
viscosity [mPa·s], 101 kPa
Conditions | x2 = 0.1 | x2 = 0.201 | x2 = 0.301 | x2 = 0.401 | x2 = 0.501 | x2 = 0.601 | x2 = 0.701 | x2 = 0.801 | x2 = 0.9
303.15 K | 10.95 | 9.244 | 8.099 | 7.25 | 6.508 | 5.696 | 4.981 | 4.335 | 3.978
313.15 K | 7.906 | 7.005 | 6.239 | 5.548 | 4.764 | 4.151 | 3.605 | 3.222 | 2.981
323.15 K | 5.285 | 4.821 | 4.389 | 3.866 | 3.518 | 3.128 | 2.716 | 2.358 | 2.148

O=C(OCc1ccccc1)c1ccccc1O + CS(C)=O
303.15 K, 101 kPa
Conditions | viscosity [mPa·s]
x1 = 0.079 | 2.299
x1 = 0.1284 | 2.529
x1 = 0.1867 | 2.933
x1 = 0.2564 | 3.273
x1 = 0.3413 | 3.776
x1 = 0.4467 | 4.342
x1 = 0.5812 | 4.995

O=C1CCCCC1 + COCCO
298.15 K, 101 kPa
Conditions | viscosity [mPa·s]
x1 = 0.0793 | 1.432
x1 = 0.1624 | 1.369
x1 = 0.2494 | 1.33
x1 = 0.3408 | 1.325
x1 = 0.4367 | 1.33
x1 = 0.5377 | 1.354
x1 = 0.644 | 1.402
x1 = 0.7562 | 1.504
x1 = 0.8746 | 1.665

O=C1CCCCC1 + CCC(C)=O
298.15 K, 101 kPa
Conditions | viscosity [mPa·s]
x1 = 0.0755 | 0.45
x1 = 0.1552 | 0.523
x1 = 0.2395 | 0.576
x1 = 0.3288 | 0.655
x1 = 0.4235 | 0.739
x1 = 0.5243 | 0.868
x1 = 0.6316 | 1.03
x1 = 0.7461 | 1.258
x1 = 0.8686 | 1.587

O=C1CCCCC1 + CC(=O)N(C)C
viscosity [mPa·s], 101 kPa
Conditions | 298.15 K | 308.15 K | 318.15 K
x1 = 0.1 | 1.024 | 0.873 | 0.75
x1 = 0.2001 | 1.095 | 0.907 | 0.76
x1 = 0.3001 | 1.182 | 0.956 | 0.782
x1 = 0.4001 | 1.28 | 1.018 | 0.823
x1 = 0.45 | 1.334 | 1.058 | 0.849
x1 = 0.4999 | 1.391 | 1.099 | 0.882
x1 = 0.5501 | 1.454 | 1.147 | 0.922
x1 = 0.5991 | 1.518 | 1.196 | 0.962
x1 = 0.7015 | 1.66 | 1.322 | 1.071
x1 = 0.7499 | 1.731 | 1.387 | 1.134
x1 = 0.7984 | 1.805 | 1.454 | 1.199
x1 = 0.8997 | 1.969 | 1.615 | 1.348

CC(=O)CC(C)C + CCCC(C)O
viscosity [mPa·s], 101.3 kPa
Conditions | x1 = 0.1036 | x1 = 0.2131 | x1 = 0.3003 | x1 = 0.3959 | x1 = 0.5098 | x1 = 0.5963 | x1 = 0.6924 | x1 = 0.7942 | x1 = 0.9001
298.15 K | 2.26 | 1.61 | 1.32 | 1.12 | 0.924 | 0.821 | 0.712 | 0.646 | 0.589
303.15 K | 1.93 | 1.41 | 1.16 | 1.01 | 0.848 | 0.76 | 0.664 | 0.607 | 0.557
308.15 K | 1.65 | 1.25 | 1.05 | 0.91 | 0.78 | 0.705 | 0.62 | 0.571 | 0.527
313.15 K | 1.41 | 1.1 | 0.965 | 0.837 | 0.718 | 0.658 | 0.601 | 0.553 | 0.502

CCOCC + Nc1ccccc1
298.15 K, 101 kPa
Conditions | viscosity [mPa·s]
x1 = 0.3027 | 1.359
x1 = 0.5488 | 0.669
x1 = 0.7838 | 0.38

Cc1cccc[n+]1CCCO.[Cl-] + O
viscosity [mPa·s], 100 kPa
Conditions | x1 = 0.0008999 | x1 = 0.001798 | x1 = 0.003589 | x1 = 0.005379 | x1 = 0.007153 | x1 = 0.00892
293.15 K | 1.041 | 1.068 | 1.116 | 1.161 | 1.203 | 1.243
298.15 K | 0.922 | 0.945 | 0.987 | 1.026 | 1.063 | 1.098
303.15 K | 0.822 | 0.841 | 0.877 | 0.911 | 0.943 | 0.974
308.15 K | 0.739 | 0.756 | 0.788 | 0.818 | 0.846 | 0.874
313.15 K | 0.668 | 0.682 | 0.709 | 0.736 | 0.761 | 0.786

CCCCCCO + CCO
Conditions | viscosity [mPa·s]
298.15 K, 101.33 kPa, x2 = 0.1094 | 4.001
298.15 K, 101.33 kPa, x2 = 0.2099 | 3.537
298.15 K, 101.33 kPa, x2 = 0.3973 | 2.828
298.15 K, 101.33 kPa, x2 = 0.5015 | 2.484
298.15 K, 101.33 kPa, x2 = 0.5903 | 2.214
298.15 K, 101.33 kPa, x2 = 0.6925 | 1.894
298.15 K, 101.33 kPa, x2 = 0.8012 | 1.574
298.15 K, 101.33 kPa, x2 = 0.899 | 1.305
303.15 K, 101 kPa, x2 = 0.1433 | 3.364
303.15 K, 101 kPa, x2 = 0.2814 | 2.887
303.15 K, 101 kPa, x2 = 0.487 | 2.241
303.15 K, 101 kPa, x2 = 0.6448 | 1.807
303.15 K, 101 kPa, x2 = 0.7691 | 1.509
303.15 K, 101 kPa, x2 = 0.8692 | 1.28
303.15 K, 101 kPa, x2 = 0.9524 | 1.093

O=C1CCCCC1 + CCCCCCCCCC
viscosity [mPa·s], 101.33 kPa
Conditions | x1 = 0.1023 | x1 = 0.2073 | x1 = 0.3011 | x1 = 0.4017 | x1 = 0.5042 | x1 = 0.6034 | x1 = 0.703 | x1 = 0.8 | x1 = 0.9018
298.15 K | 0.87 | 0.902 | 0.937 | 0.991 | 1.063 | 1.143 | 1.256 | 1.439 | 1.625
303.15 K | 0.806 | 0.836 | 0.868 | 0.916 | 0.984 | 1.053 | 1.152 | 1.316 | 1.48
308.15 K | 0.752 | 0.779 | 0.812 | 0.851 | 0.909 | 0.973 | 1.064 | 1.212 | 1.357

— the CheMixHub viscosity set
